Source: paper PMC6199744, “Development of Chemical Proteomics for the Folateome and Analysis of the Kinetoplastid Folateome” (ACS Infectious Diseases, 2018)
Values joined by “and” are separate entries in the source; they are usually repeats but may differ in a detail not shown here. Identical values can stand only once. Like-named read-outs stand apart in the source and are kept apart here.

Legend:
Type in all cases: binding
[1] = molecular target: T1, HeLa cell extract proteins (Homo sapiens, UniProt P31947)
T1 construct: endogenous in cells; host or cells: HeLa cell extract
T1 sequence (P31947 1-248): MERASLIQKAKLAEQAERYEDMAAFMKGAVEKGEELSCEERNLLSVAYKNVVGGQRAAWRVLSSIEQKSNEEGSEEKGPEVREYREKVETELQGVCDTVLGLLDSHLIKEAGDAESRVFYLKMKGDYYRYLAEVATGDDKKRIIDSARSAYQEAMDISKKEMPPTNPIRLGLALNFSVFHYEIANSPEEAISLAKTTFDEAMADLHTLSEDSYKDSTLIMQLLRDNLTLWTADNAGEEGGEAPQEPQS

[2] = system: HeLa cell extract proteins
[3] = molecular target: T2, HeLa cell extract proteins (Homo sapiens, UniProt Q99873)
T2 construct: endogenous in cells; host or cells: HeLa cell extract
T2 sequence (Q99873 whole entry): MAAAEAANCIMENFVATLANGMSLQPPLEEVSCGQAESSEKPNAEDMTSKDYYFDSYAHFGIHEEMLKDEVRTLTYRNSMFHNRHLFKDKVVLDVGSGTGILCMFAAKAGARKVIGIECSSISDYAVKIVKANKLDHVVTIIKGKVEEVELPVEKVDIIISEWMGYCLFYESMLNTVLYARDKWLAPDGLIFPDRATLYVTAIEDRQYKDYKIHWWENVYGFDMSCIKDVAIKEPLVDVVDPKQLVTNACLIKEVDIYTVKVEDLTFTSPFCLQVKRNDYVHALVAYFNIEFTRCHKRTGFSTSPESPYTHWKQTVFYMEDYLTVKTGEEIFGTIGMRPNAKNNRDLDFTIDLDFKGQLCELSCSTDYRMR

[4] = molecular target: T3, HeLa cell extract proteins (Homo sapiens, UniProt Q15437); conditions: HeLa; protein SEC23B
T3 construct: endogenous in cells; host or cells: HeLa cell extract
T3 sequence (Q15437 whole entry): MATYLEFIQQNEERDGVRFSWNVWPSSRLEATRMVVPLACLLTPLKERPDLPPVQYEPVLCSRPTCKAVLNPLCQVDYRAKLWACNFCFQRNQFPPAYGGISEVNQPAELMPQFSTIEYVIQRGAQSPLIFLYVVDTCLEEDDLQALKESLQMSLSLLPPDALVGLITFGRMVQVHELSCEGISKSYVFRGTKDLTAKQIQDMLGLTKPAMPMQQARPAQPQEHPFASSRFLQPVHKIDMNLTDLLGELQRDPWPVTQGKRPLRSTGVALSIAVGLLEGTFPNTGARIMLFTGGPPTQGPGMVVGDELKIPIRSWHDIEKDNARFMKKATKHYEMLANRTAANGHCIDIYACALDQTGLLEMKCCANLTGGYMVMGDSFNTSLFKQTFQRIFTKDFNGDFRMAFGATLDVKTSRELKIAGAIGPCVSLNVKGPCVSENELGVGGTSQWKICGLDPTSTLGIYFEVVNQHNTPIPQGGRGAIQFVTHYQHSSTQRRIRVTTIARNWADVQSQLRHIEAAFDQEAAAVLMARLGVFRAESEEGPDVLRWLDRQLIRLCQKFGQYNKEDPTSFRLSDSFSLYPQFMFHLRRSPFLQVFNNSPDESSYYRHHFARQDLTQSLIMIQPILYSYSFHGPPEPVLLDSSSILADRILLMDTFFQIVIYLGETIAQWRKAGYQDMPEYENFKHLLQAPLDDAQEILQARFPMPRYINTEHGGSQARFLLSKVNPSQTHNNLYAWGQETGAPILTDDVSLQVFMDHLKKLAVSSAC

[5] = molecular target: T4, HeLa cell extract proteins (Homo sapiens, UniProt Q96AG4)
T4 construct: endogenous in cells; host or cells: HeLa cell extract
T4 sequence (Q96AG4 1-307): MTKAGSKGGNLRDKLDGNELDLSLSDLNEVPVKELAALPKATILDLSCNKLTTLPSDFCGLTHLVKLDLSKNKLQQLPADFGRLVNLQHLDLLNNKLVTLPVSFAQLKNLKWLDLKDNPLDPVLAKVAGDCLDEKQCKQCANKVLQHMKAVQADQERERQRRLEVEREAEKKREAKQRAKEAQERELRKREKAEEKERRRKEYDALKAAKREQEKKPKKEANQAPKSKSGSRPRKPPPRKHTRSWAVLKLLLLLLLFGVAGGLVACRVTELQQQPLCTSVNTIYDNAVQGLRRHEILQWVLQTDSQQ

[6] = molecular target: T5, HeLa cell extract proteins (Homo sapiens, UniProt Q5T4S7); conditions: protein UBR4; HeLa
T5 construct: endogenous in cells; host or cells: HeLa cell extract

[7] = molecular target: T6, HeLa cell extract proteins (Homo sapiens, UniProt P11310); conditions: HeLa
T6 construct: endogenous in cells; host or cells: HeLa cell extract
T6 sequence (P11310 26-421): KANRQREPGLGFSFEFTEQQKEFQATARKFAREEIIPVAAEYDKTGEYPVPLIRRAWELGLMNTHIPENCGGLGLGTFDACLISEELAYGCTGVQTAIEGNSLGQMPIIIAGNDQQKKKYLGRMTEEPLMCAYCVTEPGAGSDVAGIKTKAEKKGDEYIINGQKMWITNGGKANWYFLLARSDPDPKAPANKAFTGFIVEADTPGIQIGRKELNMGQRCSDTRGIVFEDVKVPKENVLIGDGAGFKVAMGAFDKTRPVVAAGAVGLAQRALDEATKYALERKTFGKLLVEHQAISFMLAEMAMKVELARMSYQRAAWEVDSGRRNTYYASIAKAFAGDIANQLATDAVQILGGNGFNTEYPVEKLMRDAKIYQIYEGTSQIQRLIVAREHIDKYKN

[8] = molecular target: T7, HeLa cell extract proteins (Homo sapiens, UniProt P14678); conditions: HeLa
T7 construct: endogenous in cells; host or cells: HeLa cell extract

[9] = molecular target: T8, HeLa cell extract proteins (Homo sapiens, UniProt Q9UI12); conditions: HeLa; protein ATP6V1H
T8 construct: endogenous in cells; host or cells: HeLa cell extract
T8 sequence (Q9UI12 whole entry): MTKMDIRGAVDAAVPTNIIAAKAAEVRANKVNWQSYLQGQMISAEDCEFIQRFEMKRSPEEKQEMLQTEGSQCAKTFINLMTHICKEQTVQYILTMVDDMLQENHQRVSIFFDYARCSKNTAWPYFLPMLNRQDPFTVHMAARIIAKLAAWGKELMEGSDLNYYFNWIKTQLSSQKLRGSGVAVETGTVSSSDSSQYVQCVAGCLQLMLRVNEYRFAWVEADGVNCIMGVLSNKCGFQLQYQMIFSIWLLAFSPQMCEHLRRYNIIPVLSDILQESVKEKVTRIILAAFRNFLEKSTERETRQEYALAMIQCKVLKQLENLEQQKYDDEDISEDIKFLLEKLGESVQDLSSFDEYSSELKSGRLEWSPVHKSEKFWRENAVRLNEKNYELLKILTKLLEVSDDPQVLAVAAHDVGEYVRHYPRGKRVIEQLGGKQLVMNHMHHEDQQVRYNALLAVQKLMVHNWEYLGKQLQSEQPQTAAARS

[10] = molecular target: T9, HeLa cell extract proteins (Homo sapiens, UniProt P41252); conditions: HeLa
T9 construct: endogenous in cells; host or cells: HeLa cell extract
T9 sequence (P41252 1-1262): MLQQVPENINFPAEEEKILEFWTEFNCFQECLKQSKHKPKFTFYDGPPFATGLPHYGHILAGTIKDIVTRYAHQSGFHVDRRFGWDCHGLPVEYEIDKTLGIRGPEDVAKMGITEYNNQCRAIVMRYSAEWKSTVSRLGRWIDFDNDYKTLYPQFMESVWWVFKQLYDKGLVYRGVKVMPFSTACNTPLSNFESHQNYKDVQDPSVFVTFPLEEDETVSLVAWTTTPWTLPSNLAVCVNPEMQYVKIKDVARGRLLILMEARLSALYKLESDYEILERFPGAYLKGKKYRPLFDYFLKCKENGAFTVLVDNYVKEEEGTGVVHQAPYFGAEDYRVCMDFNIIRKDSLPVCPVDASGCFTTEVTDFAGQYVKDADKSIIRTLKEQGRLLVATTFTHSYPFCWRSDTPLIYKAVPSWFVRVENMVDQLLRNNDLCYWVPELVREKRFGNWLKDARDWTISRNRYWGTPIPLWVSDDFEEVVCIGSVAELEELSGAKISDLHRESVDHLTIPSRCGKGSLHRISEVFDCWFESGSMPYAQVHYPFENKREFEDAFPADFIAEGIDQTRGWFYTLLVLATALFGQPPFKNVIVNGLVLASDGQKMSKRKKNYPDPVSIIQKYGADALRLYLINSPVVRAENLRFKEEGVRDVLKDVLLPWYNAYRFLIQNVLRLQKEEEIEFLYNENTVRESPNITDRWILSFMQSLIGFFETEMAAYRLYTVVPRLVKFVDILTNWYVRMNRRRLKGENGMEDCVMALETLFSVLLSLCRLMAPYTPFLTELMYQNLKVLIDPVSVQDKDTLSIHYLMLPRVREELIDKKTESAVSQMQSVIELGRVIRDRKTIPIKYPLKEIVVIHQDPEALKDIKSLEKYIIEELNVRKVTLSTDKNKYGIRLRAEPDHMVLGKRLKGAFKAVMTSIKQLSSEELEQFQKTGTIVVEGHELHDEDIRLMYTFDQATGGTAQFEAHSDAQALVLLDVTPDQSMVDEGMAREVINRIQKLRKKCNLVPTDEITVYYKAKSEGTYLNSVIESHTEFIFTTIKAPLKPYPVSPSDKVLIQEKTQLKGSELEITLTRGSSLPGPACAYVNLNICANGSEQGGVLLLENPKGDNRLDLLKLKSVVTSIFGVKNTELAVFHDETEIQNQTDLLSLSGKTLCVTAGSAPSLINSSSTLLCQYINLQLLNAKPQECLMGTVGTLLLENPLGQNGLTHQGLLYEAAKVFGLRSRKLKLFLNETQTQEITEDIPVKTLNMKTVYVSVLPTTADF

[11] = HeLa, protein A8MV93_HUMAN (SIMILAR TO CYTOCHROME C.)
[12] = HeLa, protein CTNNA1 (ISOFORM 2 OF CATENIN ALPHA-1.)
[13] = HeLa, protein LOC654188 (SIMILAR TO PEPT[…] A-LIKE.)
[14] = HeLa, protein EIF5A (ISOFORM 2 OF EUKARYOTIC TRANSLATION INITIATION FACTOR 5A-1.)
[15] = HeLa, protein NME1-NME2 (NUCLEOSIDE DIPHOSPHATE KINASE.)

Nc1nc2cccc(-c3ccccc3)c2n1Cc1ccc(Cl)c(Cl)c1 [compound 3] was tested, and the “fold changes relative to vehicle control” value ([1]; protein SFN; HeLa) was 0.82, the “fold changes relative to vehicle control” value [2] was 0.88 fold and 1 fold and the “fold changes relative to vehicle control” value [2, 11] was 1.12 fold. For the same compound, the “fold changes relative to vehicle control” value [2, 12] was 2.07 fold, the “fold changes relative to vehicle control” value ([2]; HeLa, protein LOC646960) was 1.08 and the “fold changes relative to vehicle control” value [2, 13] was 0.91 fold. The “fold changes relative to vehicle control” value ([2]; protein EIF1AP1, HeLa) was 0.97, the “fold changes relative to vehicle control” value ([2]; protein LOC442497, HeLa) was 1.03 and the “fold changes relative to vehicle control” value ([2]; protein RPLP0-LIKE, HeLa) was 1.04. The “fold changes relative to vehicle control” value ([3]; protein PRMT1; HeLa) was 0.93, the “fold changes relative to vehicle control” value [4] was 1.04 and the “fold changes relative to vehicle control” value ([5]; protein LRRC59; HeLa) was 0.98. The “fold changes relative to vehicle control” value [6] was 1.08, the “fold changes relative to vehicle control” value ([7]; protein ACADM) was 1 and the “fold changes relative to vehicle control” value ([8]; protein SNRPB) was 1.04. For the same compound, the “fold changes relative to vehicle control” value [9] was 1.17 and the “fold changes relative to vehicle control” value ([10]; protein IARS) was 1.28.
With CCCCCCOc1ccc(Cc2cnc(N)nc2N)cc1 [compound 1] the “fold changes relative to vehicle control” value ([1]; protein SFN; HeLa) was 1.27, the “fold changes relative to vehicle control” value [2, 11] was 1.4 fold and the “fold changes relative to vehicle control” value [2, 12] was 1.26 fold. For the same compound, the “fold changes relative to vehicle control” value [2, 14] was 1.5 fold, the “fold changes relative to vehicle control” value ([2]; HeLa, protein LOC646960) was 1.15 and the “fold changes relative to vehicle control” value [2, 13] was 1.34 fold. The “fold changes relative to vehicle control” value [2, 15] was 1.36 fold, the “fold changes relative to vehicle control” value ([2]; protein EIF1AP1, HeLa) was 1.3 and the “fold changes relative to vehicle control” value ([2]; protein LOC442497, HeLa) was 1.12. For the same compound, the “fold changes relative to vehicle control” value ([2]; protein RPLP0-LIKE, HeLa) was 0.94, the “fold changes relative to vehicle control” value ([3]; protein PRMT1; HeLa) was 0.95 and the “fold changes relative to vehicle control” value [4] was 1.01. For the same compound, the “fold changes relative to vehicle control” value ([5]; protein LRRC59; HeLa) was 1.14, the “fold changes relative to vehicle control” value [6] was 1.14 and the “fold changes relative to vehicle control” value ([7]; protein ACADM) was 1.17. The “fold changes relative to vehicle control” value ([8]; protein SNRPB) was 1.17, the “fold changes relative to vehicle control” value [9] was 1.24 and the “fold changes relative to vehicle control” value ([10]; protein IARS) was 1.15.
For NCCCNc1ccc(C(=O)NC(CCC(=O)O)C(=O)O)cc1 (stereo not drawn) [compound 7], the “fold changes relative to vehicle control” value ([1]; HeLa; protein SFN) was 0.97, the “fold changes relative to vehicle control” value ([2]; HeLa, captured protein EIF1AP1) was 0.98 and the “fold changes relative to vehicle control” value ([2]; HeLa, captured protein LOC442497) was 1.05. For the same compound, the “fold changes relative to vehicle control” value ([2]; HeLa, protein ABCB7 (ISOFORM 2 OF ATP-BINDING CASSETTE SUB-FAMILY B MEMBER 7, MIT[…])) was 1.23, the “fold changes relative to vehicle control” value ([2]; HeLa, protein ASAH1 (N-ACYLSPHINGOSINE AMIDOHYDROLASE (ACID CERAMIDASE) 1 ISOFORM B)) was 1.18 and the “fold changes relative to vehicle control” value ([2]; HeLa, protein GTPBP3 (ISOFORM 2 OF TRNA MODIFICATION GTPASE GTPBP3, MITOCHONDRIAL PRECURSOR)) was 1. For the same compound, the “fold changes relative to vehicle control” value ([2]; HeLa, protein LOC654188) was 0.99, the “fold changes relative to vehicle control” value ([2]; HeLa, protein MYL6 (ISOFORM SMOOTH MUSCLE OF MYOSIN LIGHT POLYPEPTIDE 6)) was 1.14 and the “fold changes relative to vehicle control” value ([2]; HeLa, protein NME1-NME2) was 0.91. For the same compound, the “fold changes relative to vehicle control” value ([2]; HeLa, protein PSMA1 (ISOFORM LONG OF […] ALPHA TYPE 1)) was 1.02, the “fold changes relative to vehicle control” value ([2]; HeLa, protein PSME1 (PROTEASOME ACTIVATOR SUBUNIT 1 ISOFORM 2)) was 0.98 and the “fold changes relative to vehicle control” value ([2]; HeLa, protein RPLP0-LIKE) was 0.93. The “fold changes relative to vehicle control” value ([2]; protein HIST2H2BA, HeLa) was 0.9, the “fold changes relative to vehicle control” value ([2]; protein LOC646960, HeLa) was 1.02 and the “fold changes relative to vehicle control” value ([3]; HeLa; protein PRMT1) was 0.91. The “fold changes relative to vehicle control” value [4] was 1.09, the “fold changes relative to vehicle control” value ([5]; HeLa; protein LRRC59) was 0.87 and the “fold changes relative to vehicle control” value [6] was 1.02. The “fold changes relative to vehicle control” value ([7]; protein ACADM (HY[…] DKFZP686M24262)) was 1.06, the “fold changes relative to vehicle control” value ([8]; captured protein SNRPB) was 1.16 and the “fold changes relative to vehicle control” value [9] was 1.01. For the same compound, the “fold changes relative to vehicle control” value ([10]; captured protein IARS) was 1.1.
With CCCCCCOc1cccc(Cc2cnc(N)nc2N)c1 [compound 2] the “fold changes relative to vehicle control” value ([1]; protein SFN; HeLa) was 1.83, the “fold changes relative to vehicle control” value [2, 11] was 2.46 fold and the “fold changes relative to vehicle control” value [2, 12] was 2.1 fold. The “fold changes relative to vehicle control” value [2, 14] was 2.05 fold, the “fold changes relative to vehicle control” value ([2]; HeLa, protein LOC646960) was 1.08 and the “fold changes relative to vehicle control” value ([2]; HeLa, protein LOC654188 (SIMILAR TO PEPTIDYLPROLYL ISOMERASE A-LIKE.)) was 2.15 fold. For the same compound, the “fold changes relative to vehicle control” value [2, 15] was 2.13 fold, the “fold changes relative to vehicle control” value ([2]; protein EIF1AP1, HeLa) was 1.77 and the “fold changes relative to vehicle control” value ([2]; protein LOC442497, HeLa) was 1.38. For the same compound, the “fold changes relative to vehicle control” value ([2]; protein RPLP0-LIKE, HeLa) was 1.23, the “fold changes relative to vehicle control” value ([3]; protein PRMT1; HeLa) was 1.24 and the “fold changes relative to vehicle control” value [4] was 0.93. The “fold changes relative to vehicle control” value ([5]; protein LRRC59; HeLa) was 1.54, the “fold changes relative to vehicle control” value [6] was 1.19 and the “fold changes relative to vehicle control” value ([7]; protein ACADM) was 1.75. For the same compound, the “fold changes relative to vehicle control” value ([8]; protein SNRPB) was 1.46, the “fold changes relative to vehicle control” value [9] was 1.21 and the “fold changes relative to vehicle control” value ([10]; protein IARS) was 1.22.
